Experimental data as given in patent publication US12070452B2, “Compounds targeting HSP110 protein for cancer treatment” (INSERM (Institut National de la Santé et de la Recherche …, priority 2018, dated 2024).

How the values were obtained:
[1] = target: T1, HSP110:STAT3 complex (Homo sapiens, UniProt Q92598); assay: Immunoprecipitation of HSP110:STAT3 complex in SW480 cells; assay type: cell-based; settings: SW480 shCtrl cells, 10 μM, 48 h
T1 construct: disrupting HSP110:STAT3 complex within the cell using human colorectal SW480 cancer cells; endogenous in cells; host or cells: SW480 cells carrying control shRNA (shCtrl); sh110 cells as HSP110-depleted control
T1 sequence (Q92598 2-858 limits assumed, one chain of several): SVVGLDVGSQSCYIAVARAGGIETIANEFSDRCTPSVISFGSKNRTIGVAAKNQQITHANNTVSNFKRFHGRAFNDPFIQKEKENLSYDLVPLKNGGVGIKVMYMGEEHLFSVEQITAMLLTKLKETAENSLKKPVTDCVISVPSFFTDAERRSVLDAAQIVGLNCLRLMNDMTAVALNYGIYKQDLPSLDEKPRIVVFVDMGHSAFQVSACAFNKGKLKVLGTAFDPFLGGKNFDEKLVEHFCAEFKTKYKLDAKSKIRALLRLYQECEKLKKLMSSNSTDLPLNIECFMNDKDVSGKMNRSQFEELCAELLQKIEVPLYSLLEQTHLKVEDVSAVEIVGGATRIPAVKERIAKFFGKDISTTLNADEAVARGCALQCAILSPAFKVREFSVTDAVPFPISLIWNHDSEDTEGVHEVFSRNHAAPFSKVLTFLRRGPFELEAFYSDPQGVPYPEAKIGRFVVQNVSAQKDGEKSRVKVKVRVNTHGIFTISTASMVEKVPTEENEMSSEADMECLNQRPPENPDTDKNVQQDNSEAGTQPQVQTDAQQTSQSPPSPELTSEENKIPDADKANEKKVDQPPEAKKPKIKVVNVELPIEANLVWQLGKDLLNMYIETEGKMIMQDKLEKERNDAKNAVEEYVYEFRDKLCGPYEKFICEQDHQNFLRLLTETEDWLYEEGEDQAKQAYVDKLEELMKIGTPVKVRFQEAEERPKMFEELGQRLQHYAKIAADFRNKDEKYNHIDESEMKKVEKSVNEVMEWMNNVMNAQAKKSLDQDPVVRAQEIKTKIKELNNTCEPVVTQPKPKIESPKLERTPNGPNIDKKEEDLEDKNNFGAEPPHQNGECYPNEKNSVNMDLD
Procedure: FIG. 2A: Immunoprecipitation (IP) analysis of HSP110 protein (first line), STAT3 protein (second line) compared with total Immunoglobuline (Ig) and actin in SW480 cells treated with (from left to the right column) non-relevant antibody as control (called NT a Normal rabbit IgG (sc-2027) from Santa Cruz Biotechnologies), compound 52 (related to formula (III)), compound 33 (related to formula (II)), compound 51 (related to formula (IV)) and comparative compound 61 at a concentration of 10 μM during 48 h on shCtrl cells transfected with shRNA for shRNA control (referenced ShCtrl IP:STAT3 for the five first columns) or HSP110-silencing (sh110) (referenced sh110-IP:STAT3 for the two last columns) (from the left to the right columns). Immunoprecipitation analysis of HSP110 (first line), STAT3 (second line) compared with total Ig and actin (second blot in the right) is observed with shCtrl cells transfected with shRNA for shRNA control (shCtrl) or HSP110-silencing (sh110) (left to right columns).
FIG. 2B: Quantification of HSP110:STAT3 disruption in percentage considering the total amount of HSP110 protein normalized by the signal intensity of the Ig band of FIG. 1 panel A. (Ordinate: Percentage of STAT3:HSP110 protein interaction (scale 50)). The histogram measured quantification in percentage for ShCtrl IP: STAT3 treated with Ctrl, compounds 52, 33, 51 and comparative compound 61, and for shCtrl cells transfected with shRNA for shRNA control referenced ShCtrl IP: STAT3) or HSP110-silencing (sh110) (referenced sh110-IP: STAT3) (from the left to the right column)
(§1) Immunoprecipitation test were realized on human colorectal cancer cells (SW480 and HCT116 cell lines), using a control depleted in HSP110 called Sh110 and a not depleted cells in HSP110. STAT3 phosphorylation is then […] by compounds 33 and 52. Depletion of HSP110 in the negative control blocked the phosphorylation of STAT3 without affecting STAT3 overall levels (FIGS. 2 and 3).

[2] = system: phosphorylated STAT3; assay: P-STAT3 level in SW480 cells (immunoblot quantification); assay type: cell-based, human; settings: 10 μM, 48 h, normalized by actin
Procedure: Results for SW480 cells treated during 48 h with non-relevant antibody (called NT), compound 52, compound 33, compound 51 and comparative compound 61 at 10 μM, and sh110 cells correspond to the third fourth, fifth, sixth and last columns from the left to the right.
FIG. 3B: Quantification of P-STAT3 level (in percentage) normalized by actin. […] (Ordinate: Percentage of P-STAT3 level (scale 50)
as §1

[3] = target: T2, human protein HSP110 (Homo sapiens, UniProt Q92598); assay: HSP110 anti-aggregation function (luciferase substrate test); assay type: biochemical; settings: human HSP110 1.5 μM with firefly luciferase, 30 min at 42° C.; read-out: IC50 of HSP110 anti-aggregating activity
T2 construct: DNA coding the NBD-HSP110 (from human-HSP110)
T2 sequence (Q92598 whole entry, looked up): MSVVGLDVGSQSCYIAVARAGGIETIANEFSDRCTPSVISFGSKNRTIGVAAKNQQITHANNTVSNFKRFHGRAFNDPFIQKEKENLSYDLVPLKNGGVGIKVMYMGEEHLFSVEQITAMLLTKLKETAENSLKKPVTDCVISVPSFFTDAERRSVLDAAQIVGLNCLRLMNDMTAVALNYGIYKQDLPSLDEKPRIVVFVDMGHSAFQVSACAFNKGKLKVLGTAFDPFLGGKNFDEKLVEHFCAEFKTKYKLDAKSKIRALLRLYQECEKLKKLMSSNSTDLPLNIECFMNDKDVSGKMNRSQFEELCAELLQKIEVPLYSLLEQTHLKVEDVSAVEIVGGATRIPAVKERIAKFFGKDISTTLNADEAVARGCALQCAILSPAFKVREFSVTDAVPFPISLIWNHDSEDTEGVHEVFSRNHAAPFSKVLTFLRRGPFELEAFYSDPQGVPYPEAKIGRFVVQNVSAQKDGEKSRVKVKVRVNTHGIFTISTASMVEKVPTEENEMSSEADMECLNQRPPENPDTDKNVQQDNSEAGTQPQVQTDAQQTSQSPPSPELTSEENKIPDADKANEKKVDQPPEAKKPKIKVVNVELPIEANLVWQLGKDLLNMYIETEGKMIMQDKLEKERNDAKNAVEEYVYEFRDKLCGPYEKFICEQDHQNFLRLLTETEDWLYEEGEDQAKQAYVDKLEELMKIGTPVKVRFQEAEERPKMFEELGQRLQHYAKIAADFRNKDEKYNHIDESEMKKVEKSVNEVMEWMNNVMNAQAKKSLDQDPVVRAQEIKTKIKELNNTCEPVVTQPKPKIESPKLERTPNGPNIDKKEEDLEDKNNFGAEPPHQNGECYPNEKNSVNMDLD
Procedure: Anti-aggregation function of HSP110 was evaluated as described by O H et al (The Journal of biological chemistry 274, 15712-15718 (1999)). The human protein HSP110 (obtained as described above) at a concentration of 1.5 μM was incubated with firefly luciferase (from Sigma—from Photinus pyralis) in reaction buffer and heated in water bath for 30 min at 42° C.
Compounds of the present invention were added in reaction buffer to achieve the indicated concentrations and the final DMSO concentration was held constant at 1%. The heated reaction was diluted 10 times into buffer containing 60% of rabbit reticulocytelysate and incubated for 2 hours. The luciferase activity was measured by diluting 5 times the solution in HEPES and adding 5 μL of the solution in luciferase substrate (50 μL of Luciferase Assay System—Promega E1501 diluted in HEPES). The bioluminescence was reading with Envision Perkin Elmer.
The percentage of activity (x) was calculated by using the following equation: x=[(A−B)/(C−B)]×100, where (A) is the luciferase luminescence in presence of compounds of the invention, (B) in absence of HSP110 and (C) in presence of DMSO (Control). The percentage of total folding HSP110-promoted (mean=36%) was calculated considering as 100% the luminescence of luciferase incubated with HSP110 without heat shock. The IC50 were calculated from the dose-response curves, which were fitted by GraphPrism (Equation: Y=100/(1+10^((Log IC50−X)*HillSlope)).

[4] = target: T3, HSP110/Myd88 interaction (Homo sapiens, UniProt Q92598); assay: Immunoprecipitation of HSP110/Myd88 in DLBCL cell line; assay type: cell-based; settings: IP Myd88, Western Blot
T3 construct: endogenous in cells
T3 sequence (Q92598 2-858 limits assumed): as the sequence (Q92598 2-858 limits assumed, one chain of several) above
Source text: FIG. 10A: Immunoprecipitation (IP) analysis of HSP110 (first line), Myd88 (second line), heavy chains (third line) and actin (fourth line) in large B cell lymphoma cell lines (DLBCL).
Left part of FIG. 10A (“Inputs”): treated with (from left to right column of the left part of FIG. 10A) DMSO, compound 52 (5052), compound 33 (5033) and compound 61 (5061) (Negative control);
Middle part of FIG. 10A (“IP Myd88”): treated with (from left to right column of the middle part of FIG. 10A) DMSO, compound 52, compound 33 and compound 61 (as the negative control); Myd88 was immunoprecipitated with an antibody specifically directed against Myd88.
MyD88 was immuno-precipitated from the cell line which has been non-treated or treated with the HSP110 inhibitors.

[5] = system: CT26 cells; assay: Flow cytometric analysis of cell death (Annexin V / 7-AAD) in CT26 cells; assay type: cell-based, mouse; settings: 10 μM, 96 h
Procedure: FIG. 5A: Flow cytometric analysis of cell death in CT26 cells treated with the compound 33 (at the bottom left), compound 52 (at the bottom middle), comparative compound 61 (at the bottom right) at 10 μM during 96 h compared with Control (DMSO) (at the top left), and Cisplatin (at the top middle and top right). Live cells were double negative for 7-AAD (Y axis) and Annexin V (X axis), early apoptotic cells were positive for Annexin V, late apoptotic cells were positive for Annexin V and 7-AAD ([…]) and dead cells were positive for 7-AAD only.
FIG. 5B: Quantification of cell viability (in percentage) from flow cytometry data are represented (Control, cells, compounds 33, 52 and 61 from the left to the right bars). (Abscissa Negativity of 7-AAD; Ordinate Negativity of Annexin V).
We then analyzed cell death in CT26 cells treated with 10 μM during 96 h of compounds 33, 52 and 61 by flow cytometry. Cells were also treated with a well know anti-cancer compound, called cisplatin. Cells were marked for 7-aminoactinomycin D, which exclusively bind on death cells and for Annexin V, a well-known indicators of early stage apoptosis, thanks to its ability to bind to phosphatidylserine.

| Structure (SMILES) | percentage of interaction of STAT3:HSP110 [1] | P-STAT3 level [2] | IC50 [3] [µM] | HSP110/Myd88 interaction [4] | cell death / apoptosis (Annexin V and 7-AAD marking) [5] |
| --- | --- | --- | --- | --- | --- |
| COc1ccc(-c2cnc(-c3cnc(-c4ccc(OC)c(OC)c4)c(C)c3)c(/C=C/c3ccccc3)c2)cc1OC [compound 51, (E)-5,6′-Bis(3,4-dimethoxyphenyl)-5′-methyl-3-styryl-2,3′-bipyridine] | not decrease | about 50% |  |  |  |
| N#CCc1cccc(-c2cnc(Cl)c(/C=C/c3ccccc3)c2)c1 [compound 61, (E)-2-(3-(6-Chloro-5-styrylpyridin-3-yl)phenyl) acetonitrile, reference compound] | not decrease | 100% | 227.5 ± 1.9 | does not inhibit | don't seem to be marked |
